The values that follow come from patent US6287813A, “Antibiotic-based gene regulation system” (Cistronics Cell Technology GmbH, priority 1999, dated 2001).

This data set deals with T1, PIT3/PPIR ON (Streptomyces coelicolor, UniProt Q9ADN3).
T1 construct: pMF207 with pMF208 in CHO-K1
T1 sequence (Q9ADN3 1-252): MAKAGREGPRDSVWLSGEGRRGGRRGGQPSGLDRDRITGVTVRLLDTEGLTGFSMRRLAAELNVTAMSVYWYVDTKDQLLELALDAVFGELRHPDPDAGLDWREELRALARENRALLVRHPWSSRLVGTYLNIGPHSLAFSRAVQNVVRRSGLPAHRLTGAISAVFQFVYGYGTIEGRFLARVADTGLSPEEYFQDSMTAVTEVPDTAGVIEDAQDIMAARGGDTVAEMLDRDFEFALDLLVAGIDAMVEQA
Kind of data set: PipON SEAP assay, CHO-K1 cotransfected with pMF208 (PPIR ON-SEAP) and pMF207 (PIT3; Pip-KRAB). The class given is cell-based. The text has this:
The Classical PIT/PPIR system belongs to the "OFF" family of regulation concepts since gene expression is activated upon withdrawal of the regulating antibiotic. However, in some applications such as gene therapy and tissue engineering an "ON" system which is induced upon addition of streptogramin antibiotics is more desirable. We therefore constructed a new Pip-based binary PION system which consists of a PPIR ON promoter and a set of two different transrepressors. PPIR ON consists of a PIR3 module containing 3 consecutive Pip binding elements (SEQ ID NO:21; Example 3) placed in front of the strong viral SV40 promoter. Transrepressors such as PIT3, which consists of a protein fusion between Pip and the KRAB silencing domain of the human kox-1 gene (Deuschle et al., 1995, Mol. Cell Biol. 15: 1907-1914) and PIT4, which is simply Pip expressed in a eukaryotic configuration, bind to PIR3 in front of PSV40 and block transcription of this promoter. Besides sterical transcription blocking the silencing domain of PIT3 can additionally downregulate PSV40 activity. […]
Table 9: Comparison of the regulation characteristics of the PipON systems. CHO-K1 cells were simultaneously cotransfected with the plasmids indicated and the SEAP readout (slope a of the p-nitrophenolphosphate-based light absorbance time courses) was determined in the presence and absence of pristinamycin 48 hr post transfection. […]

Consider pristinamycin I [PI], for which the “SEAP readout (slope of the p-nitrophenolphosphate-based light absorbance time courses)” value (+PI (2 μg/ml) column, CHO + pMF208 + pMF207, 48 hr post transfection) is 0.00055 ± 0.0003. Further, for the setting “PIT3-PPIR ON configuration, 2880 min”, the Induction factor result was “about 150”.
